According to US20180311505A1, “METHODS FOR TREATING CANCER BY ENHANCING INTRATUMORAL IMMUNE RESPONSE” (THE GENERAL HOSPITAL CORPORATION, priority 2015, published 2018):

Tested on: parental melanoma
Assay: Immune infiltrates (immunofluorescence, flow cytometry) in parental melanomas and draining lymph nodes
Assay type: in vivo, mouse
Procedure: Immunohistochemical analyses. Mouse tumors were collected 5 days after treatment initiation and formalin-fixed paraffin-embedded (FFPE). Slides were baked for 60 minutes in a 60° C. oven and loaded into the Bond III™ staining platform. Slides were antigen retrieved in Bond™ Epitope Retrieval 1 for 30 minutes at 100° C. then incubated with CD3 (Abcam™, ab16669) at 1:150 diluted in Bond™ Primary Antibody diluent for 30 minutes at room temperature. Primary antibody was detected using Bond™ Polymer Refine Detection kit, slides were developed in DAB, then dehydrated and coverslipped. For each of 3 samples per group, 3 random 20× magnification fields were chosen at the tumor center for quantification. The open-source CellProfiler™ cell image analysis software3 was used to quantify positively stained cells in each image. The analysis pipeline utilized the UnmixColors module to separate each image into one of the Hematoxylin stain and one of the DAB stain. The EnhanceOrSuppressFeatures module was applied to the DAB image to enhance cellular features. Finally, the IdentifyPrimaryObjects module was used to count the number of cells present in the enhanced image.
Immunofluorescence analyses. […]
Flow cytometry. […] Flow cytometry data were acquired on the BD™ LSRII flow cytometer and analyzed using FlowJo™ software (Tree Star™).

## CC(C)Cn1cnc2c(N)nc3ccccc3c21 [imiquimod]
Draining lymph nodes, parental melanoma-bearing mice
  PD-L2 expression on CD11c+ dendritic cells: reduced
Parental melanomas, imiquimod alone or with anti-PD-1 or aFP
  granzyme B+ fraction of CD8+ TILs: expanded
